From patent US11142526B2, “Spirocycle compounds and methods of making and using same” (H. Lundbeck A/S, priority 2017, dated 2021)
Where two headings read alike, the source gives them in different places.

Assays:
[1] = biological target: MAGL (Homo sapiens (Human), UniProt Q99685); test: In vitro competitive activity-based protein profiling (gel-based, FP-Rh or HT-01 probe); type: biochemical
Protocol: In Vitro Competitive Activity-Based Protein Profiling.
Proteomes (human prefrontal cortex or cell membrane fractions) (50 μL, 1.0 mg/mL total protein concentration) were preincubated with varying concentrations of inhibitors at 37° C. After 30 min, FP-Rh or HT-01 (1.0 μL, 50 μM in DMSO) was added and the mixture was incubated for another 30 min at room temperature. Reactions were quenched with SDS loading buffer (15 μL—4×) and run on SDS-PAGE.

[2] = biological target: MAGL (Mus musculus (Mouse), UniProt O35678); test: In vitro competitive activity-based protein profiling, mouse brain proteome; type: biochemical; settings: for inhibition at 1 µM: mouse; for IC50: mouse brain
Sequence of MAGL (Mus musculus (Mouse), UniProt O35678) (O35678 whole entry): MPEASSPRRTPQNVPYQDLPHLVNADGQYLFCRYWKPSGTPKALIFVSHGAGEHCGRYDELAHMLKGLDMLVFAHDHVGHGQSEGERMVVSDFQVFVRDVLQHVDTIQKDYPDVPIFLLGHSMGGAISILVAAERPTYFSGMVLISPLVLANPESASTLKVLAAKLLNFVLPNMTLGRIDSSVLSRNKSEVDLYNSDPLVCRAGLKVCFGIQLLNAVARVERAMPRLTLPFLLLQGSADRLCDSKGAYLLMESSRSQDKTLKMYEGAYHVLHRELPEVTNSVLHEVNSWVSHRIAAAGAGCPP

[3] = human PC3, read-out: MAGL % Inhibition at 1 μM (human PC3)
[4] = human PFC (prefrontal cortex), read-out: MAGL % Inhibition at 1 μM (human PFC)
[5] = human PC3, read-out: MAGL Human PC3 (IC50)

Sequence of MAGL (Homo sapiens (Human), UniProt Q99685) (Q99685 whole entry): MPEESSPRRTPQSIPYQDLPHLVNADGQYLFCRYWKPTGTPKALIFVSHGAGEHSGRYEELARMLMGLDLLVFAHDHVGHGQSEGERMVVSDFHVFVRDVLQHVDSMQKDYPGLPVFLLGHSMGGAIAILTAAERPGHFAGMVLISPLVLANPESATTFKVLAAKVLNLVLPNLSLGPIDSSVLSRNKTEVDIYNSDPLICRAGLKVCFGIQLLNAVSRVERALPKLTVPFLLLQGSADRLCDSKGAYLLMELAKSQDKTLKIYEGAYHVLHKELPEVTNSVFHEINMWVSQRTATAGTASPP

Row | inhibition at 1 µM [1, 4] [%] | inhibition at 1 µM [2] [%] | SMILES | also measured
1 | > 75 | > 75 | O=C(OC(C(F)(F)F)C(F)(F)F)N1CCC2(CCCN2C(=O)c2c(C3CC3)nc3cccnn23)CC1 [Example 3, 1,1,1,3,3,3-Hexafluoropropan-2-yl 1-(2-cyclopropylimidazo[1,2-b]pyridazine-3-carbonyl)-1,8-diazaspiro[4.5]decane-8-carboxylate] | inhibition at 1 µM [1, 3]: > 75%
2 | > 75 | > 75 | O=C(OC(C(F)(F)F)C(F)(F)F)N1CCC2(CCCN2Cc2cnc(N3CCNCC3)s2)CC1 [Example 4, 1,1,1,3,3,3-hexafluoropropan-2-yl 1-((2-(piperazin-1-yl)thiazol-5-yl)methyl)-1,8-diazaspiro[4.5]decane-8-carboxylate] | IC50 [1, 5]: < 100 nM
3 | > 75 |  | O=C(OC(C(F)(F)F)C(F)(F)F)N1CCC2(CCN(Cc3cccnn3)C2)CC1 [Example 9, 1,1,1,3,3,3-Hexafluoropropan-2-yl 2-(pyridazin-3-ylmethyl)-2,8-diazaspiro[4.5]decane-8-carboxylate] | 
4 | < 25 | < 25 | O=C(OC(C(F)(F)F)C(F)(F)F)N1CCC2(CCCN2C(=O)c2ncccn2)CC1 [Example 12, 1,1,1,3,3,3-Hexafluoropropan-2-yl 1-(pyrimidine-2-carbonyl)-1,8-diazaspiro[4.5]decane-8-carboxylate] | 
5 | > 75 | > 75 | Cc1ccc2sc(C(=O)N3CCCC34CCN(C(=O)OC(C(F)(F)F)C(F)(F)F)CC4)cc2c1 [Example 17, 1,1,1,3,3,3-Hexafluoropropan-2-yl 1-(5-methylbenzo[b]thiophene-2-carbonyl)-1,8-diazaspiro[4.5]decane-8-carboxylate] | IC50 ([1]; human PFC (prefrontal cortex), read-out: MAGL Human PFC (IC50)): < 100 nM
6 | > 75 | > 75 | Cc1nn(C)c(C(=O)N2CCCC23CCN(C(=O)OC(C(F)(F)F)C(F)(F)F)CC3)c1C#N [Example 19, 1,1,1,3,3,3-hexafluoropropan-2-yl 1-(4-cyano-1,3-dimethyl-1H-pyrazole-5-carbonyl)-1,8-diazaspiro[4.5]decane-8-carboxylate] | 
7 | > 75 | > 75 | CC(C)N1CCn2cc(C(=O)N(C)C3(C)CCN(C(=O)OC(C(F)(F)F)C(F)(F)F)CC3)nc2C1 [Example 22, 1,1,1,3,3,3-Hexafluoropropan-2-yl 4-(7-isopropyl-N-methyl-5,6,7,8-tetrahydroimidazo[1,2-a]pyrazine-2-carboxamido)-4-methylpiperidine-1-carboxylate] | inhibition at 1 µM [1, 3]: > 75%; IC50 [1, 5]: < 100 nM
8 | > 75 | > 75 | CN(C(=O)c1cn2c(n1)CN(C1CCC1)CC2)C1(C)CCN(C(=O)OC(C(F)(F)F)C(F)(F)F)CC1 [Example 23, 1,1,1,3,3,3-Hexafluoropropan-2-yl 4-(7-cyclobutyl-N-methyl-5,6,7,8-tetrahydroimidazo[1,2-a]pyrazine-2-carboxamido)-4-methylpiperidine-1-carboxylate] | inhibition at 1 µM [1, 3]: > 75%; IC50 [1, 5]: < 100 nM
9 | > 75 |  | O=C(OC(C(F)(F)F)C(F)(F)F)N1CCC2(CCCN2C(=O)C(F)(F)c2ncccn2)CC1 [Example 32, 1,1,1,3,3,3-Hexafluoropropan-2-yl 1-(2,2-difluoro-2-(pyrimidin-2-yl)acetyl)-1,8-diazaspiro[4.5]decane-8-carboxylate] | inhibition at 1 µM [1, 3]: > 75%; IC50 [1, 5]: < 100 nM
10 |  |  | O=C(Cc1nc(C(F)(F)F)ccc1CN1CCCC12CCN(C(=O)OC(C(F)(F)F)C(F)(F)F)CC2)NS(=O)(=O)C1CC1 [Example 35, 1,1,1,3,3,3-Hexafluoropropan-2-yl 1-((2-(2-(cyclopropanesulfonamido)-2-oxoethyl)-6-(trifluoromethyl)pyridin-3-yl)methyl)-1,8-diazaspiro[4.5]decane-8-carboxylate] | inhibition at 1 µM [1, 3]: > 75%
11 |  | > 75 | O=C(OC(C(F)(F)F)C(F)(F)F)N1CCC2(CCCN2C(=O)c2sc3ccccc3c2Cl)CC1 [Example 97, 1,1,1,3,3,3-Hexafluoropropan-2-yl 1-(3-chlorobenzo[b]thiophene-2-carbonyl)-1,8-diazaspiro[4.5] decane-8-carboxylate] | 
12 |  | > 75 | O=C(OC(C(F)(F)F)C(F)(F)F)N1CCC2(CCCN2C(=O)c2cc3cccc(C(F)(F)F)c3s2)CC1 [Example 98, 1,1,1,3,3,3-Hexafluoropropan-2-yl 1-(7-(trifluoromethyl)benzo[b]thiophene-2-carbonyl)-1,8-diazaspiro[4.5] decane-8-carboxylate] | IC50 [2]: < 100 nM
13 |  | > 75 | O=C(OC(C(F)(F)F)C(F)(F)F)N1CCC2(CCCN2C(=O)c2cc3cc(F)ccc3s2)CC1 [Example 99, 1,1,1,3,3,3-Hexafluoropropan-2-yl 1-(5-fluorobenzo[b]thiophene-2-carbonyl)-1,8-diazaspiro[4.5] decane-8-carboxylate] | IC50 [2]: < 100 nM
14 |  | > 75 | O=C(OC(C(F)(F)F)C(F)(F)F)N1CCC2(CCCN2C(=O)c2cc3cc(C(F)(F)F)ccc3[nH]2)CC1 [Example 100, 1,1,1,3,3,3-Hexafluoropropan-2-yl 1-(5-(trifluoromethyl)-1H-indole-2-carbonyl)-1,8-diazaspiro[4.5] decane-8-carboxylate] | 
15 |  | > 75 | O=C(OC(C(F)(F)F)C(F)(F)F)N1CCC2(CCCN2C(=O)c2cc3ccc(F)cc3s2)CC1 [Example 103, 1,1,1,3,3,3-Hexafluoropropan-2-yl 1-(6-fluorobenzo[b]thiophene-2-carbonyl)-1,8-diazaspiro[4.5] decane-8-carboxylate] | 
16 | > 75 |  | O=C(OC(C(F)(F)F)C(F)(F)F)N1CCC2(CCN(Cc3ccnnc3)C2)CC1 [Example 106, 1,1,1,3,3,3-Hexafluoropropan-2-yl 2-(pyridazin-4-ylmethyl)-2,8-diazaspiro [4.5]decane-8-carboxylate] | 
17 |  | > 75 | O=C(OC(C(F)(F)F)C(F)(F)F)N1CCC2(CCCN2C(=O)c2cc3cc(F)ccc3[nH]2)CC1 [Example 107, 1,1,1,3,3,3-Hexafluoropropan-2-yl 1-(5-fluoro-1H-indole-2-carbonyl)-1,8-diazaspiro[4.5] decane-8-carboxylate] | IC50 [2]: < 100 nM
18 |  | > 75 | Cc1cccc2cc(C(=O)N3CCCC34CCN(C(=O)OC(C(F)(F)F)C(F)(F)F)CC4)[nH]c12 [Example 108, 1,1,1,3,3,3-Hexafluoropropan-2-yl 1-(7-methyl-1H-indole-2-carbonyl)-1,8-diazaspiro[4.5] decane-8-carboxylate] | IC50 [2]: < 100 nM
19 |  | > 75 | O=C(OC(C(F)(F)F)C(F)(F)F)N1CCC2(CCCN2C(=O)c2cc3cc(Cl)c(Cl)cc3[nH]2)CC1 [Example 111, 1,1,1,3,3,3-Hexafluoropropan-2-yl 1-(5,6-dichloro-1H-indole-2-carbonyl)-1,8-diazaspiro[4.5] decane-8-carboxylate] | IC50 [2]: < 100 nM
20 |  |  | O=C(OC(C(F)(F)F)C(F)(F)F)N1CCC2(CCCN2C(=O)c2cc3c(s2)CCNC3)CC1 [Example 152, 1,1,1,3,3,3-Hexafluoropropan-2-yl 1-(4,5,6,7-tetrahydrothieno[3,2-c]pyridine-2-carbonyl)-1,8-diazaspiro[4.5] decane-8-carboxylate] | IC50 [1, 5]: < 100 nM
21 |  |  | O=C(OC(C(F)(F)F)C(F)(F)F)N1CCC2(CCCN2C(=O)c2nc3n(n2)CCCN3)CC1 [Example 153, 1,1,1,3,3,3-Hexafluoropropan-2-yl 1-(4,5,6,7-tetrahydro-[1,2,4]triazolo[1,5-a]pyrimidine-2-carbonyl)-1,8-diazaspiro[4.5]decane-8-carboxylate] | IC50 [1, 5]: < 100 nM
22 | > 75 |  | CC1(NC(=O)c2cn3c(n2)CN(C2CCC2)CC3)CCN(C(=O)OC(C(F)(F)F)C(F)(F)F)CC1 [Example 183, 1,1,1,3,3,3-Hexafluoropropan-2-yl 4-(7-cyclobutyl-5,6,7,8-tetrahydroimidazo[1,2-a]pyrazine-2-carboxamido)-4-methylpiperidine-1-carboxylate] | inhibition at 1 µM [1, 3]: > 75%; IC50 [1, 5]: < 100 nM
23 | > 75 |  | O=C(OC(C(F)(F)F)C(F)(F)F)N1CCC2(CCCN2C(=O)C(F)(F)c2cnccn2)CC1 [Example 197, 1,1,1,3,3,3-Hexafluoropropan-2-yl 1-(2,2-difluoro-2-(pyrazin-2-yl)acetyl)-1,8-diazaspiro[4.5] decane-8-carboxylate] | inhibition at 1 µM [1, 3]: > 75%
24 |  | > 75 | CC(C)(C)c1cc(CN2CCC3(CCN(C(=O)OC(C(F)(F)F)C(F)(F)F)CC3)C2)n(-c2ccccc2Cl)n1 [Example 217, 1,1,1,3,3,3-Hexafluoropropan-2-yl 2-((3-(t-butyl)-1-(2-chlorophenyl)-1H-pyrazol-5-yl)methyl)-2,8-diazaspiro[4.5]decane-8-carboxylate] | IC50 [2]: < 100 nM
25 |  | > 75 | CC(C)n1cc(CN2CCCC23CCN(C(=O)OC(C(F)(F)F)C(F)(F)F)CC3)c(-c2cc(Cl)cc(Cl)c2)n1 [Example 220, 1,1,1,3,3,3-Hexafluoropropan-2-yl 1-((3-(3,5-dichlorophenyl)-1-isopropyl-1H-pyrazol-4-yl)methyl)-1,8-diazaspiro[4.5]decane-8-carboxylate] | 
26 |  | > 75 | O=C(OC(C(F)(F)F)C(F)(F)F)N1CCC2(CCCN2Cc2cc3cc(Cl)ccc3[nH]2)CC1 [Example 224, 1,1,1,3,3,3-Hexafluoropropan-2-yl 1-((5-chloro-1H-indol-2-yl)methyl)-1,8-diazaspiro[4.5]decane-8-carboxylate] | IC50 [2]: < 100 nM
27 |  | > 75 | O=C(OC(C(F)(F)F)C(F)(F)F)N1CCC2(CCCN2Cc2cncs2)CC1 [Example 225, 1,1,1,3,3,3-Hexafluoropropan-2-yl 1-(thiazol-5-ylmethyl)-1,8-diazaspiro [4.5]decane-8-carboxylate] | 
